In PubChem BioAssay (NCI):
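Dose response: 5 concentrations. Exposure: 48 h. Format: 96-well plates. Endpoint: linear interpolation; highest concentration if not reached. TGI: concentration producing complete growth inhibition.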

What was measured:
Experiment in all cases: NCI anticancer screen, dose series, 48 h
[1] = tested on: 786-0 renal
[2] = tested on: A498 renal
[3] = tested on: A549 NSCLC
[4] = tested on: ACHN renal
[5] = tested on: CCRF-CEM leukemia
[6] = tested on: COLO 205 colon
[7] = tested on: DLD-1 colon
[8] = tested on: DMS 114 small cell lung
[9] = tested on: DMS 273 small cell lung
[10] = tested on: EKVX NSCLC
[11] = tested on: HCC-2998 colon
[12] = tested on: HCT-116 colon
[13] = tested on: HCT-15 colon
[14] = tested on: HL-60(TB) leukemia
[15] = tested on: HOP-18 NSCLC
[16] = tested on: HOP-62 NSCLC
[17] = tested on: HOP-92 NSCLC
[18] = tested on: HT29 colon
[19] = tested on: IGROV1 ovarian
[20] = tested on: K-562 leukemia
[21] = tested on: KM12 colon
[22] = tested on: KM20L2 colon
[23] = tested on: LOX IMVI melanoma
[24] = tested on: LXFL 529 NSCLC
[25] = tested on: M14 melanoma
[26] = tested on: M19-MEL melanoma
[27] = tested on: MALME-3M melanoma
[28] = tested on: MOLT-4 leukemia
[29] = tested on: NCI-H226 lung
[30] = tested on: NCI-H23 lung
[31] = tested on: NCI-H460 lung
[32] = tested on: NCI-H522 lung
[33] = tested on: OVCAR-3 ovarian
[34] = tested on: OVCAR-4 ovarian
[35] = tested on: OVCAR-5 ovarian
[36] = tested on: OVCAR-8 ovarian
[37] = tested on: RXF 393 renal
[38] = tested on: SF-268 CNS
[39] = tested on: SF-295 CNS
[40] = tested on: SF-539 CNS
[41] = tested on: SK-MEL-2 melanoma
[42] = tested on: SK-MEL-28 melanoma
[43] = tested on: SK-MEL-5 melanoma
[44] = tested on: SK-OV-3 ovarian
[45] = tested on: SN12C renal
[46] = tested on: SNB-19 CNS
[47] = tested on: SNB-75 CNS
[48] = tested on: SNB-78 CNS
[49] = tested on: SR leukemia
[50] = tested on: SW-620 colon
[51] = tested on: TK-10 renal
[52] = tested on: U251 CNS
[53] = tested on: UACC-257 melanoma
[54] = tested on: UO-31 renal
[55] = tested on: XF 498 CNS

Measured: TGI

COC(=O)/C=C/C1C2C3(CCC(C)C12C)OCCS3 (stereo not given)
> 100 µM: all assays above
